Assays:
[1] = test system: dog; details: Chronic toxicity; beagle; Oral; Feed; dose end: 53 week; group: systemic; systemic / clinical chemistry / alkaline phosphatase (alp/alk) / alkaline phosphatase (alp/alk) + systemic / clinical chemistry / …
[2] = test system: mouse; details: Carcinogenicity, b6c3f1, Oral, Feed, dose end: 24 month, group: systemic
[3] = test system: rat; details: Combined chronic toxicity/carcinogenicity, fischer, Oral, Feed, dose end: 24 month, group: systemic
[4] = test system: mouse; details: Subchronic oral toxicity in rodents, b6c3f1, Feed, dose end: 96 day, group: systemic, systemic / organ weight / liver / absolute + systemic / organ weight / liver / relative to body weight + systemic / organ weight / liver / …
[5] = test system: rat; details: Prenatal developmental toxicity study, sprague dawley, Oral, Gavage/Intubation, dose end: 15 GD
[6] = test system: rat; details: Multigenerational reproductive toxicity study, fischer, Oral, Feed, dose end: 2 generation
[7] = test system: rabbit; details: Prenatal developmental toxicity study, new zealand white, Oral, Gavage/Intubation, dose end: 18 GD
[8] = test system: mouse; details: Carcinogenicity, b6c3f1, Oral, Feed, dose end: 24 month, group: systemic; remark: listed apart in the source
[9] = test system: rat; details: Sub-acute dermal toxicity, other, Topical, dose end: 28 day, group: systemic
[10] = test system: rat; details: Subchronic inhalation toxicity, other, Nose-Only, dose end: 90 day, group: systemic, systemic / pathology microscopic / nose / [other] + systemic / pathology microscopic / nose / degeneration + systemic / pathology …
[11] = test system: rat; details: Multigenerational reproductive toxicity study, Sprague-Dawley, Oral, Feed, dose end: 1 generation
[12] = test system: rat; details: Subchronic oral toxicity in rodents, sprague dawley, Feed, dose end: 3 month, group: systemic
[13] = test system: rat; details: Multigenerational reproductive toxicity study, sprague dawley, Oral, Feed, dose end: 2 generation
[14] = test system: rat; details: Subchronic oral toxicity in rodents, wistar, Gavage/Intubation, dose end: 90 day, group: systemic
[15] = test system: rat; details: Subchronic dermal toxicity, sprague dawley, Topical, dose end: 14 week, group: systemic
[16] = test system: rat; details: Prenatal developmental toxicity study, sprague dawley, Oral, Gavage/Intubation, dose end: 16 GD, group: maternal
[17] = test system: rat; details: Subchronic oral toxicity in rodents, wistar, Gavage/Intubation, dose end: 90 day, group: systemic; remark: listed apart in the source
[18] = systemic / pathology microscopic / intestine small / hyperplasia + systemic / pathology microscopic / intestine small / hypertrophy + …
[19] = systemic / in life observation / body weight / body weight gain + systemic / pathology microscopic / kidney / adenocarcinoma + systemic / …
[20] = group: developmental, developmental / developmental malformation / bone / incomplete ossification + developmental / developmental malformation / bone / short …
[21] = group: maternal, systemic / in life observation / body weight / body weight + systemic / in life observation / body weight / body weight gain + systemic / in…
[22] = group: offspring, systemic / in life observation / body weight / offspring (pup) weight + systemic / pathology microscopic / liver / vacuolization
[23] = group: parental, systemic / organ weight / liver / absolute + systemic / organ weight / liver / relative to body weight
[24] = group: developmental, developmental / developmental malformation / bone / misshapen
[25] = group: maternal, systemic / in life observation / body weight / body weight gain + systemic / organ weight / liver / absolute + systemic / organ weight / …
[26] = systemic / pathology gross / intestine small / discolored + systemic / pathology microscopic / intestine small / [other] + systemic / …
[27] = systemic / hematology / leukocyte (wbc) count differential / leukocyte (wbc) + systemic / hematology / neutrophils / neutrophils + systemic…
[28] = systemic / pathology microscopic / thyroid gland / altered colloid + systemic / pathology microscopic / thyroid gland / hypertrophy
[29] = group: offspring, systemic / in life observation / body weight / offspring (pup) weight + systemic / in life observation / clinical signs / reduced activity
[30] = group: parental, systemic / clinical chemistry / thyroid stimulating hormone (thyrotropin) (tsh) / thyroid stimulating hormone (=thyrotropin) (tsh) + …
[31] = group: parental, systemic / in life observation / clinical signs / nasal discharge + systemic / in life observation / body weight / body weight + systemic / …
[32] = group: reproductive, reproductive / offspring survival early / dead fetuses / dead fetuses + reproductive / offspring survival early / litter size / litter size…
[33] = group: reproductive, reproductive / reproductive performance / reproductive performance other / NOS + reproductive / reproductive performance / pregnancy index…
[34] = systemic / clinical chemistry / cholesterol / cholesterol + systemic / clinical chemistry / phosphorus / phosphorus + systemic / pathology …
[35] = group: offspring, developmental / developmental malformation / trunk / umbilical hernia + developmental / offspring survival late / [other] / [other] + …
[36] = group: parental, systemic / in life observation / clinical signs / body cold to touch + systemic / in life observation / clinical signs / drooping eyelids (…
[37] = group: parental, systemic / pathology microscopic / thyroid gland / colloid content + systemic / pathology microscopic / thyroid gland / hypertrophy + …
[38] = group: reproductive, reproductive / reproductive performance / dystocia / dystocia + reproductive / reproductive performance / postimplantation loss / …
[39] = systemic / pathology microscopic / pharynx / lesion(s) (nos)
[40] = systemic / pathology microscopic / bone marrow / hyperplasia
[41] = systemic / pathology microscopic / bone marrow / hyperplasia + systemic / hematology / mean corpuscular (cell) volume (mcv) / mean …
[42] = systemic / in life observation / clinical signs / salivation + systemic / in life observation / food consumption / food consumption
[43] = systemic / in life observation / clinical signs / righting ability
[44] = systemic / in life observation / clinical signs / righting ability + systemic / in life observation / body weight / body weight + systemic…

Compound: Clc1cccc(C(Cl)(Cl)Cl)n1 [Nitrapyrin]
- LEL [1]: 15 mg/kg/day
- LOAEL [1]: 15 mg/kg/day
- NEL [1]: 3 mg/kg/day
- NOAEL [1]: 3 mg/kg/day
- LOAEL [2, 18]: 125 mg/kg/day
- NOAEL [2, 18]: < 125 mg/kg/day
- NEL ([2]; systemic / pathology microscopic / liver / hypertrophy + systemic / pathology microscopic / stomach / hyperkeratosis + systemic / pathology …): 250 mg/kg/day
- LOAEL ([3]; systemic / in life observation / body weight / body weight gain): 20 mg/kg/day
- LEL ([3]; systemic / in life observation / body weight / body weight gain + systemic / in life observation / body weight / body weight): 20 mg/kg/day
- NEL [3, 19]: 5 mg/kg/day
- NOAEL [3, 19]: 5 mg/kg/day
- LEL [4]: 200 mg/kg/day
- LOAEL [4]: 200 mg/kg/day
- NEL [4]: < 200 mg/kg/day
- NOAEL [4]: < 200 mg/kg/day
- LEL [5, 20]: 120 mg/kg/day
- LOAEL [5, 20]: 120 mg/kg/day
- NEL [5, 20]: 50 mg/kg/day
- NOAEL [5, 20]: 50 mg/kg/day
- LOAEL [5, 21]: 120 mg/kg/day
- NEL [5, 21]: 15 mg/kg/day
- NOAEL [5, 21]: 50 mg/kg/day
- LEL ([5]; group: maternal, systemic / in life observation / body weight / body weight gain): 50 mg/kg/day
- LOAEL [6, 22]: 75 mg/kg/day
- NEL [6, 22]: 20 mg/kg/day
- NOAEL [6, 22]: 20 mg/kg/day
- LEL ([6]; group: offspring, systemic / in life observation / body weight / offspring (pup) weight + systemic / pathology microscopic / liver / vacuolization + systemic…): 75 mg/kg/day
- NOAEL ([6]; group: parental, systemic / organ weight / kidney / absolute + systemic / organ weight / kidney / relative to body weight + systemic / in life observation / …): 5 mg/kg/day
- LOAEL ([6]; group: parental, systemic / organ weight / kidney / absolute + systemic / organ weight / kidney / relative to body weight + systemic / organ weight / liver…): 20 mg/kg/day
- LEL [6, 23]: 5 mg/kg/day
- NEL [6, 23]: < 5 mg/kg/day
- LEL [7, 24]: 30 mg/kg/day
- LOAEL [7, 24]: 30 mg/kg/day
- NEL [7, 24]: 10 mg/kg/day
- NOAEL [7, 24]: 10 mg/kg/day
- LEL [7, 25]: 30 mg/kg/day
- LOAEL [7, 25]: 30 mg/kg/day
- NEL [7, 25]: 10 mg/kg/day
- NOAEL [7, 25]: 10 mg/kg/day
- LOAEL [8, 26]: 75 mg/kg/day
- NEL [8, 26]: 5 mg/kg/day
- NOAEL [8, 26]: 25 mg/kg/day
- LEL ([8]; systemic / pathology microscopic / intestine small / [other] + systemic / pathology gross / intestine small / discolored + systemic / …): 25 mg/kg/day

Compound: Cc1ccc(S(=O)(=O)C(I)I)cc1 [Diiodomethyl 4-methylphenyl sulfone]
- LOAEL [9, 27]: > 500 mg/kg/day
- NOAEL [9, 27]: ≥ 500 mg/kg/day
- LEL [9, 28]: 20 mg/kg/day
- NEL [9, 28]: < 20 mg/kg/day
- LEL [10]: 0.41 ppm
- LOAEL [10]: > 1.74 ppm
- NEL [10]: 0.0579 ppm
- NOAEL [10]: ≥ 1.74 ppm
- LEL [11, 29]: 80 mg/kg/day
- LOAEL [11, 29]: > 200 mg/kg/day
- NEL [11, 29]: 20 mg/kg/day
- NOAEL [11, 29]: ≥ 200 mg/kg/day
- LOAEL [11, 30]: > 200 mg/kg/day
- NOAEL [11, 30]: ≥ 200 mg/kg/day
- LEL [11, 31]: 20 mg/kg/day
- NEL [11, 31]: < 20 mg/kg/day
- LEL [11, 32]: 80 mg/kg/day
- NEL [11, 32]: 20 mg/kg/day
- LOAEL [11, 33]: > 200 mg/kg/day
- NOAEL [11, 33]: ≥ 200 mg/kg/day
- LOAEL [12, 34]: 80 mg/kg/day
- NEL [12, 34]: 5 mg/kg/day
- NOAEL [12, 34]: 20 mg/kg/day
- LEL ([12]; systemic / in life observation / clinical signs / scabbing): 20 mg/kg/day
- LOAEL [13, 35]: > 40 mg/kg/day
- NEL [13, 35]: 2.5 mg/kg/day
- NOAEL [13, 35]: ≥ 40 mg/kg/day
- LEL ([13]; group: offspring, systemic / in life observation / body weight / offspring (pup) weight + developmental / offspring survival late / viability index / …): 10 mg/kg/day
- LOAEL [13, 36]: > 40 mg/kg/day
- NOAEL [13, 36]: ≥ 40 mg/kg/day
- LEL [13, 37]: 2.5 mg/kg/day
- NEL [13, 37]: < 2.5 mg/kg/day
- LEL [13, 38]: 40 mg/kg/day
- LOAEL [13, 38]: > 40 mg/kg/day
- NEL [13, 38]: 10 mg/kg/day
- NOAEL [13, 38]: ≥ 40 mg/kg/day

Compound: CCCCCCCCCCCCN(CCCN)CCCN [1,3-Propanediamine, N-(3-aminopropyl)-N-dodecyl-]
- LOAEL ([14]; systemic / pathology microscopic / kidney / basophilia + systemic / pathology microscopic / kidney / dilatation): 90 mg/kg/day
- LEL [14, 39]: 5 mg/kg/day
- NEL [14, 39]: < 5 mg/kg/day
- LOAEL [15, 40]: 5 mg/kg/day
- NOAEL [15, 40]: < 5 mg/kg/day
- LEL [15, 41]: 5 mg/kg/day
- NEL [15, 41]: < 5 mg/kg/day
- LEL ([16]; systemic / in life observation / clinical signs / salivation): 50 mg/kg/day
- LOAEL [16, 42]: > 200 mg/kg/day
- NEL [16, 42]: 25 mg/kg/day
- NOAEL [16, 42]: ≥ 200 mg/kg/day
- LEL [17, 43]: 10 mg/kg/day
- LOAEL [17, 43]: 10 mg/kg/day
- NEL [17, 44]: 5 mg/kg/day
- NOAEL [17, 44]: 5 mg/kg/day
